# Results as given in publication PMC6471485, “Selective Inhibitors of a Human Prolyl Hydroxylase (OGFOD1) Involved in Ribosomal Decoding” (Chemistry (Weinheim an Der Bergstrasse, Germany), 2019).
# What was measured:
# [1] = S9 liver microsome stability assay (Cyprotex); format: in vitro ADME; details: for microsomal CLint: S9 liver microsome assay, read-out: predicted intrinsic clearance; for clearance classification: low clearance: < 8.6 µL/min/mg protein
# Description: (§1) supplemented with 80 µM Zn(II), 70 µM of inhibitor, all in 50 mM Tris-d11, pH 7.5, 10 % D2O, […]
# (§2) Cell Culture and Immunoblotting
# (§3) HeLa cells were cultured in DMEM media supplemented with 10 % fetal bovine serum, 4 mM L-glutamine, 100 U/mL penicillin, and 100 µg/mL streptomycin. Cells were treated with the indicated compounds, prepared in 1% DMSO, for 5 h. Following a PBS buffer rinse, cells were lysed in urea/SDS buffer supplemented with 1 mM dithiothreitol. Cell extracts were analyzed by SDS-PAGE, electroblotted onto PVDF membranes (Millipore) and probed with anti-HIF-1α antibody (clone 54, BD Transduction Laboratories) at 1:1000 dilution for 1 h at room temperature. The HRP-conjugated secondary antibody was then applied at room temperature for 1 h. Target proteins were detected with SuperSignal Chemiluminescent […]
# (§4) ADMET in vitro Predictors
# S9 liver microsome stability assays and MDCK-MDR1 efflux assays were carried out for CCT3 and CCT4 by Cyprotex (UK). Additional details are provided later in the Supporting […]
# The solubility and metabolic stability of CCT3 and CCT4 was preliminarily evaluated using a S9 liver microsome assay (Cyprotex, UK). According to the assay, CCT3 and CCT4 had […]
# respectively, and are thus classified as having low clearance (< 8.6 µL/min/mg protein).
# The cell permeability of CCT3 and CCT4 were evaluated using an MDR1-MDCK in vitro […]
# able to penetrate the blood-brain barrier. The permeability coefficients were determined to be
# [2] = tested on: PHD enzymes in HeLa cells; test: HIFα Western blot in HeLa cells (activity of PHD enzymes in cells); format: cell-based, human; details: HeLa cells treated 5 h, anti-HIF-1α Western blot
# Description: as §1, §2, §3, §4
# S9 liver microsome stability assays and MDCK-MDR1 efflux assays were carried out for CCT3 and CCT4 by Cyprotex (UK). Additional details are provided later in the Supporting
# PHD2181-426 = biological target: T1, PHD2181-426 (Homo sapiens, UniProt Q9GZT9); test: PHD2 inhibition assay: hydroxylation of HIF-1a CODD peptide by MALDI-TOF MS; format: biochemical
# T1 construct: 181-426 (1 µM) was
# Description: OGFOD1 inhibition assays were performed by determining the extent of hydroxylation of a 20mer fragment of human ribosomal protein S23 (RPS23) containing residues 51-70 (H2N- […]
# -CONH2) by matrix-assisted laser desorption/ionization time-of-flight mass spectrometry (MALDI-TOF MS) using a Waters Micromass MALDI micro MX mass spectrometer and MassLynx 4.1, as previously described.[7,8] The optimized hydroxylation assay involved incubation of OGFOD1 (1 µM) with inhibitor (1 % v/v in DMSO) in the presence of (NH4)2Fe(SO4)2 (50 µM), the disodium salt of 2-oxoglutarate (25 µM), […]
# OGFOD1 was pre-incubated with inhibitor for 5 min before initiation of the reaction via the addition of the other reagents. Reactions were quenched with formic acid (1 % v/v) after 15 min. Samples were prepared for MALDI using α-cyano-4-hydrocinnamic acid (CHCA; prepared in 50 % acetonitrile) as a matrix. Dose-responses were assessed in 8-point triplicates, normalized to a no enzyme negative control and a no inhibitor positive control. Non-linear regression analysis was performed using Prism (GraphPad).
# PHD2181-426 inhibition assays were performed by determining the extent of hydroxylation of a HIF-1a CODD peptide substrate (HIF-1a residues 556-574), using MALDI-TOF MS as described with OGFOD1.[8] The optimized hydroxylation assay involved incubation of PHD2181-426 (1 µM) with inhibitor (1 % v/v in DMSO) in the presence of (NH4)2Fe(SO4)2 (10 µM), the disodium salt of 2-oxoglutarate (60 µM), sodium ascorbate (100 µM), and HIF-1aCODD 556-574 (50 µM) in HEPES (50 mM, pH 7.5) at 37 °C for 15 min. The FIH assay employed MALDI-TOF MS detection of hydroxylation. Reactions consisted of FIH […]
# (50 nM), ankyrin peptide (50 µM; […]), the disodium salt of 2- […]
# oxoglutarate (100 µM), sodium ascorbate (100 µM), and (NH4)2Fe(SO4)2 (10 µM), and […]
# T1 sequence (Q9GZT9 181-426 limits assumed): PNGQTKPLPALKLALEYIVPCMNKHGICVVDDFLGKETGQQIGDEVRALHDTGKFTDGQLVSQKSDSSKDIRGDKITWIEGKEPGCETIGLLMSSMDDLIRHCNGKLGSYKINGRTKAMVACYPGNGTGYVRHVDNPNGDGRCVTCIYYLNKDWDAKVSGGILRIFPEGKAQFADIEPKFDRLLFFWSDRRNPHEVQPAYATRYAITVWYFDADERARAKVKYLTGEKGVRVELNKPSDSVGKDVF
Structure (SMILES),microsomal CLint [1] [µL/min/mg],clearance classification ([1]; listed as CCT3),"HIFα stabilization in HeLa cells, in words [2]",IC50 (PHD2181-426) [µM],"inhibition of PHD2 hydroxylation activity, in words (PHD2181-426; inhibitor 100 µM, PHD2181-426 1 µM (Figures S2, S8))",clearance classification ([1]; listed as CCT4),melting point [°C]
Cn1c(O)c(C(=O)CCc2ccccc2)c(=O)n(C)c1=O [compound 26],4.76,only low levels of clearance,did not stabilize HIFα,> 100,Lack of inhibition,–,–
Cn1c(O)c(C(=O)CCc2cccs2)c(=O)n(C)c1=O [compound 42],7.72,–,did not stabilize HIFα,> 100,–,only low levels of clearance,91
